The target in data set [1] is CYP1A2 (Homo sapiens (Human), UniProt P05177). The experiment in a line: CYP1A2 inhibition assay in pooled human liver microsomes. It counts as in vitro ADME. Particulars: standard enzymatic activity assay. Here is the method: The quenched samples were incubated at 4° C. for 10 min and centrifuged at 4° C. for 10 min.
Background: Liver microsomes are a subcellular fraction often used to study metabolism.

A further data set deals with UGT1A4. The data set is described as follows: Hepatic enzyme induction (mRNA) in primary human hepatocytes, UGT1A4. It counts as in vitro ADME. The conditions noted are these: 72 hours, doses of 0.5 uM and 5 uM. On the procedure:
(§1) Total RNA from cells was isolated using the PureLink RNA Mini Kit (Invitrogen, ThermoFisher Scientific) according to the manufacturer's protocol. Reverse transcription was performed using 30 ng of total RNA and the High Capacity cDNA Reverse Transcription kit (Applied Biosystems, ThermoFisher Scientific) according to the vendor's protocol. cDNA was measured by quantitative real time PCR using the StepOnePlus Real-Time PCR System (Applied Biosystems, Invitrogen) and TaqMan Fast Universal PCR Master Mix (Applied Biosystems, ThermoFisher Scientific). All primers and TaqMan probes were purchased from the Applied Biosystems inventory (ThermoFisher Scientific). All samples were measured in triplicate and normalized to the values for GAPDH.
(§2) Primary human hepatocytes used were the “Cryo Human Hepatocytes” from Gibco. 24 hours prior to treatment, cells were plated at 350,000 cells/well (700,000 cells/mL) in the following media: Williams E medium (WEM, A1217601), 2.5 mL FBS, 5 μL, 10 mM dexamethasone (from Gibco Thawing/Plating Supplement Pack, CM3000), 1.8 mL thawing/plating cocktail (from Gibco Thawing/Plating Supplement Pack, CM3000). […] The mRNAs for the following hepatic enzymes were quantified as described above. […]

Another data set has as its system HEK293 cells. The data set is described as follows: Viability of HEK293 cells (trypan blue). It counts as cell-based. Particulars: 3 days treatment, 0.4 μM or 10 μM. Here is the method:
(§3) HEK293T cells were transfected with Rluc-AR alone, and alongside Turbo-Elk at a 4:1 ratio of ELK1:AR using Mirus LT1 reagent. The 4:1 ratio was determined to be the optimal ratio for the inhibition assay after testing different ratios of Turbo-Elk:Rluc-AR. 24 hours later, cells were treated with DMSO (vehicle control) or KCI838 (0.4 uM and 10 uM) and left for 24 hours. They were then trypsinized and seeded in 96 well white-bottomed plates at 100,000 per well (in quadriplicate) in media lacking phenol red (with DMSO or drug as required), left for 2 hours to settle, and then treated with 25 uM coelenterazine and luminescence read at 535 and 635 nm on a Clariostar instrument. BRET readings were calculated as 635/535 ratio minus 635/535 ratio for Rluc-AR only transfected controls. Cell lysates were probed by western blot for AR or ELK1, probing for GAPDH as the loading control. Cell viability in the presence of KCI838 was ensured by treating HEK293 cells for an extended period (3 days) with the compound or vehicle control and measuring viability using trypan blue staining.
To ensure that KCI838 was not toxic to the HEK293 cells, viability of the cells was tested following extended (3 days) treatment with, vehicle, 0.4 μM, or 10 μM KCI838. Viable cells were counted after three days and the data was plotted as percent of untreated cells.

The subject of the next data set is 22Rv1-Lenti AR cells. The data set is described as follows: Colony formation in 22Rv1 cells overexpressing AR. It counts as cell-based. Particulars: AR overexpressing 22Rv1 cells. On the procedure:
(§4) 22Rv1 cells were plated in triplicate at a density of 2000 cells/well in 6-well plates in 48-hour conditioned medium (phenol-red free RPMI1640 10% FBS, 1% penicillin/streptomycin, 1% L-glutamine) obtained from monolayer cultures of the same cells, as previously described. 48 h after plating, the cells were treated with various concentrations of the test compounds in the same media. The test compounds and media were replenished every 48 hours until colonies developed in the control untreated wells (in 10 days). The colonies were then stained with crystal violet and counted.
(§5) AR expressing lentiviral expression plasmid pCDH-CMV-MCS-EF1-puro (System BioSciences) or the plasmid vector alone (control), was packaged in 293FT cells. Virus-containing media was harvested at 48 and 72 hours after packaging and stored at −80° C. 48 hours before infection, 22Rv1 cells were plated at 30-50% confluence in 10 cm dishes in phenol-red free medium supplemented with 10% heat-inactivated FBS and 2 mM L-glutamine. On the day of infection, cells were infected with the lentivirus with polybrene (8 μg/mL) for a duration of 5 hours. The virus was then replaced with fresh medium containing 10% FBS and 100 units/mL penicillin, 100 μg/mL streptomycin, and 2 mM L-glutamine mixture. […]

In another data set the test system is 22Rv1-Lenti vector cells. The data set is described as follows: Colony formation in control 22Rv1 cells transduced with lentiviral vector alone. It counts as cell-based. Particulars: control 22Rv1 cells (vector), with DHT. On the procedure:
as §4, §5

Another data set has as its target binding of AR to ELK1 (Homo sapiens (Human), UniProt P10275). The experiment in a line: BRET assay for inhibition of in situ binding of AR to ELK1 in HEK293T cells. It counts as cell-based. The conditions noted are these: HEK-293T, read-out: inhibition of BRET signal for binding of AR to ELK1. Here is the method: as §3
HEK293T cells were transfected with Rluc-AR alone, and alongside Turbo-Elk. 24 hours later, cells were treated with KCI838 at the indicated doses. The following day, the cells were reseeded and allowed to settle for two hours before the BRET assay was performed. […]

Data set [2] relates to CYP1A2. The experiment in a line: Hepatic enzyme induction (mRNA) in primary human hepatocytes, CYP1A2. It counts as in vitro ADME. The conditions noted are these: 72 hours. Here is the method:
as §1, §2

Data set [3] relates to 22Rv1 cells. The data set is described as follows: Colony formation assay in 22Rv1 cells. It counts as cell-based. The conditions noted are these: 22Rv1 CRPC cells. Here is the method:
as §4
The ability of KCI837 to inhibit colony formation in castration and enzalutamide resistant prostate cancer cells was tested. 22Rv1 cells were seeded in triplicate six well plates in phenol red-free conditioned media. 48 hours later, treatment with KCI837 at the indicated doses was initiated. KCI837 was replenished every 48 hours. Seven days later, colonies were fixed and stained with crystal violet. Colony counts are plotted.

The test system of data set [4] is UGT1A1. The experiment in a line: Hepatic enzyme induction (mRNA) in primary human hepatocytes, UGT1A1. The conditions noted are these: 72 hours, doses of 0.5 uM and 5 uM. It counts as in vitro ADME. On the procedure:
as §1, §2

Data set [5] is described as follows: Repeated intraperitoneal administration to mice (toxicity, body weight). It counts as in vivo, BalbC mice. Particulars: for initial weight loss: male BalbC mice, intraperitoneal. Here is the method:
KCI838 was repeatedly administered by intraperitoneal injection to two groups of 6-week old male BalbC mice at doses of 200 mg/Kg and 100 mg/Kg.

In data set [6] the target is UGT1A1 (Homo sapiens (Human), UniProt P22309). The experiment in a line: UGT1A1 inhibition assay with human UGT1A1-expressed Supersomes. It counts as in vitro ADME. On the procedure: KCI838 was incubated at seven increasing concentrations with human UGT1A1-expressed Supersomes™ (0.25 mg/mL), alamethicin (25 μg/mL) and UDPGA (5 mM) in the presence of the probe substrate estradiol (10 μM) for 30 min at 37° C. The UGT1A1 inhibitor, atazanavir, was screened alongside the test compounds as a positive control. The reactions were terminated by quenching with one volume of methanol containing an analytical internal standard. The samples will be centrifuged at 5000 rpm for 10 min at 4° C. The metabolites were monitored by LC-MS/MS and a decrease in the formation of the metabolite compared to the vehicle control was used to calculate an IC50 value (test compound concentration which produces 50% inhibition).

For another data set, the system named is CWR22Rv1-AR-EK cells. The experiment in a line: MTT growth assay in CWR22Rv1-AR-EK cells. It counts as cell-based. The conditions noted are these: three or four days. On the procedure: This model cell line thus mimics aggressively growing advanced prostate cancer tumor cells that are insensitive to current treatments such as testosterone suppression and androgen antagonists that cannot affect AR-Vs. Since KCI838 disrupts interaction of ELK1 with wtAR as well as AR-Vs, the effect of KCI838 on the growth of CWR22Rv1-AR-EK cells was tested. For this test, the cells were seeded in phenol red-free growth media. 24 hours later, the cells were treated with KCI838, FIG. 12A, or enzalutamide, FIG. 12B, at the indicated concentrations. Cells were grown for three or four days with replenishment of the drug at 48 hours. Cell viability was measured using the MTT assay.
(Tetrazolium assays rely on reduction of a dye to a coloured formazan, in cell work by metabolically active cells.)

Data set [7] concerns 22Rv1 cells. The data set is described as follows: Cell viability (MTT) assay, monolayer growth of 22Rv1 cells. It counts as cell-based. Particulars: enzalutamide-resistant 22Rv1 CRPC monolayers; 2.5 uM, 5 uM and 10 uM. On the procedure: (§6) Cells from monolayer cultures were trypsinized and seeded in 96-well plates coated with poly(d-lysine) at a density of 4000 cells per well (for 22Rv1 cells and LNCaP cells) or 5000 cells per well (for VCaP cells). The media used were the same as the growth media described above for each cell line. The plates were incubated at 37° C. in 5% CO2. Twenty-four hours later, the cells were treated with the indicated compound or dimethylsulfoxide (vehicle). The culture medium was replaced with fresh media containing vehicle or the appropriate concentration of compound at the end of 48 hours during the time course of the assay. Cell viability was determined on Day 0 and at the various time points using the standard 3-(4,5-dimethylthiazol-2-yl)-2,5-diphenyltetrazolium bromide (MTT) assay. The assays ware conducted in replicates of six wells per condition and values plotted as percent of the Day 0 values.

The subject of the next data set is VCaP cells. The data set is described as follows: Cell viability (MTT) assay, monolayer growth of VCaP cells. It counts as cell-based. Particulars: dose range 2.5 uM-10 uM; dose-dependent. Here is the method:
as §6

Each structure is given as a SMILES string. Where two headings read alike, the source gives them in different places.

UGT1A1 (Homo sapiens (Human), UniProt P22309), sequence (P22309 26-533): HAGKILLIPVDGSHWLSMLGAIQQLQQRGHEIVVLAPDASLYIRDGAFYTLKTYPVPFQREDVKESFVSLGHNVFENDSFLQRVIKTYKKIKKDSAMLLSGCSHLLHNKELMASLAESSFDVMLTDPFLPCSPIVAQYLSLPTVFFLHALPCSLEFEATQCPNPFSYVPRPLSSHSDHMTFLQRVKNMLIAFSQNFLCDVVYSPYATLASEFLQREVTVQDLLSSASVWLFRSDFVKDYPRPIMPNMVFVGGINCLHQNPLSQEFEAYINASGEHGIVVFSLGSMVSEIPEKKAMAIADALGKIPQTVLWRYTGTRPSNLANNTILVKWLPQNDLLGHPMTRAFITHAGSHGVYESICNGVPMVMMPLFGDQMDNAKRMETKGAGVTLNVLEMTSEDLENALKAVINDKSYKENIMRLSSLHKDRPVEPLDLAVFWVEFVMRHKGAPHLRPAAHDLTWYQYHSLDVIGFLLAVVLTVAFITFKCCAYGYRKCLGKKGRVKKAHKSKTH
binding of AR to ELK1, sequence (P10275 whole entry): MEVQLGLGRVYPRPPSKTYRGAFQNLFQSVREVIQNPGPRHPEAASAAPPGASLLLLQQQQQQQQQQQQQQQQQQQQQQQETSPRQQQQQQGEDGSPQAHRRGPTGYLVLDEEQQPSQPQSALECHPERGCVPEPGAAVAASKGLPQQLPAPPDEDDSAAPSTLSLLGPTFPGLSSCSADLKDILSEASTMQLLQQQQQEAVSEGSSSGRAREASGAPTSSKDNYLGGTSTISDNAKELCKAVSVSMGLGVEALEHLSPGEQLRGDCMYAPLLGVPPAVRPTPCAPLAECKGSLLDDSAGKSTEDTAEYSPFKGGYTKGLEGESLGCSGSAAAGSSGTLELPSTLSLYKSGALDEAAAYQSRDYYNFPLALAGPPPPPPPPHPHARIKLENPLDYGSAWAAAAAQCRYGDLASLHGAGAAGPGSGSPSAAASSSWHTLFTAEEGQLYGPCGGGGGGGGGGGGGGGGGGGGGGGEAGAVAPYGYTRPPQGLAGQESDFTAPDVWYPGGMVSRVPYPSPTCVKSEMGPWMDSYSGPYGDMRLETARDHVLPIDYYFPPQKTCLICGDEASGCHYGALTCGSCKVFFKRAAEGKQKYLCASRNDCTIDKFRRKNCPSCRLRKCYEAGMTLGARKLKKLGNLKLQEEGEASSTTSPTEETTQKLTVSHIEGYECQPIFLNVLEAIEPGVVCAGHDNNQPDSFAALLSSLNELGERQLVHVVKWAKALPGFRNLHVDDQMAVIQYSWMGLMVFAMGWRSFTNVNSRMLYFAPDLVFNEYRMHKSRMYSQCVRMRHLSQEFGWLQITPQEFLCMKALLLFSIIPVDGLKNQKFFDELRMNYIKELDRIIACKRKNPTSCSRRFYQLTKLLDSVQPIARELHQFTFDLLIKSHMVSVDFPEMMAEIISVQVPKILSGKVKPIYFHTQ
CYP1A2 (Homo sapiens (Human), UniProt P05177), sequence (P05177 whole entry): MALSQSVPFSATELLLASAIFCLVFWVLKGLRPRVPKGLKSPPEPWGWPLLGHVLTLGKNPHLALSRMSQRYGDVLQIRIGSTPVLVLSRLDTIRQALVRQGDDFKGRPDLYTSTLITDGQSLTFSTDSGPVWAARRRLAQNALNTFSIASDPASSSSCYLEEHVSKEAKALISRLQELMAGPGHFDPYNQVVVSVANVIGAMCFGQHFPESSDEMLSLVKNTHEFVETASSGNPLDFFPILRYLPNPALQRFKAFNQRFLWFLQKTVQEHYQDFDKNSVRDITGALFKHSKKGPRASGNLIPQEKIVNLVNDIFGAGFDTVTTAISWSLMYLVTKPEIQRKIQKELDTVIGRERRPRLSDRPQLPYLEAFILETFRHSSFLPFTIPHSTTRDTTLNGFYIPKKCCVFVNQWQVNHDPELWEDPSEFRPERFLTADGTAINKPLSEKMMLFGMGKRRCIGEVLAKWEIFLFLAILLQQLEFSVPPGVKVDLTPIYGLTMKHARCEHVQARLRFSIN

For the molecule `O=c1cc(-c2cccc(O)c2)n(CC(F)(F)F)c2cccc(O)c12` [KCI838], the half-maximal inhibitory concentration (IC50) (commonly the midpoint of a concentration-inhibition curve) was 2920 nM on CYP1A2 [1]; 132 nM with 22Rv1-Lenti AR cells (Homo sapiens, with DHT, read-out: IC50 for inhibition of colony formation); 68 nM in the data set on 22Rv1-Lenti vector cells (Homo sapiens, read-out: IC50 for inhibition of colony formation); approximately 60 nM in the data set on 22Rv1 cells [3] (Homo sapiens, read-out: IC50 of colony counts); 35900 nM on UGT1A1 [6] (standard enzymatic activity assay, read-out: IC50 value for UGT1A1). Besides, in the data set on UGT1A4, the “induction of UGT1A4” value is recorded as “not induced significantly”. For the same molecule, the “viability of HEK293 cells” value with HEK293 cells is recorded as “virtually completely viable”. Also, the “inhibition of colony formation at 68 nM” value in the data set on 22Rv1-Lenti AR cells (68 nM) was “no inhibition”. Besides, the “IC75 for inhibition of colony formation” value with 22Rv1-Lenti vector cells is on record as 121 nM. Further, the inhibition (commonly the percentage by which the read-out fell short of the control) at 0.4 µM at binding of AR to ELK1 (0.4 μM) is 60%. In addition, the inhibition at 10 µM on binding of AR to ELK1 (10 μM) is 95%. The “induction of CYP1A2” value with CYP1A2 [2] (0.5 uM dose) is “unable to induce CYP1A2”; in the data set on CYP1A2 [2] (higher doses than 0.5 uM), “induce the enzyme”. Further, the “induction of UGT1A1” value in the data set with UGT1A1 [4] is reported as “not induced significantly”. Moreover, the signs of toxicity result in [5] (6-week old male BalbC mice, repeated intraperitoneal injection, 200 mg/Kg and 100 mg/Kg) is listed as “no apparent signs of toxicity”. Also, the initial weight loss in data set [5] (100 mg/Kg) was approximately 2%; in [5] (200 mg/Kg), approximately 4%.

In the case of `COC(=O)N[C@H](C(=O)N[C@@H](Cc1ccccc1)[C@@H](O)CN(Cc1ccc(-c2ccccn2)cc1)NC(=O)[C@@H](NC(=O)OC)C(C)(C)C)C(C)(C)C` [atazanavir, reference compound], the IC50 on UGT1A1 [6] (human UGT1A1 Supersomes, probe substrate estradiol (10 μM), 30 min at 37° C., read-out: IC50) turned out to be 792 nM.

In the case of `CNC(=O)c1ccc(N2C(=S)N(c3ccc(C#N)c(C(F)(F)F)c3)C(=O)C2(C)C)cc1F` [enzalutamide], the “growth of CWR22Rv1-AR-EK cells” value in the data set on CWR22Rv1-AR-EK cells is recorded as “insensitive”. The “time course of growth inhibition” value in the data set with 22Rv1 cells [7] is recorded as “did not inhibit cell growth”. Further, in the data set with 22Rv1 cells [3] (nanomolar dose range), the “effect on colony formation” value is on record as “no effect on colony formation”. For the same molecule, the “monolayer growth of VCaP cells” value with VCaP cells was “inhibited monolayer growth”.

The values are drawn from patent publication US11938127B2, “Methods and compositions relating to steroid hormone receptor-dependent proliferative disorders” (Wayne State University, priority 2021, dated 2024).
